Measurements reported in ChEMBL document CHEMBL1132159, “[3H]Azidodantrolene: synthesis and use in identification of a putative skeletal muscle dantrolene binding site in sarcoplasmic reticulum” (J Med Chem, 1999).
Each block holds one molecule with its values, some of them ahead of it.

Columns and labels:
[1] = The compound was tested for binding affinity against porcine sarcoplasmic reticulum(SR) membrane
[2] = The compound was tested for binding affinity in the absence of beta, gamma- methyleneadenosine 5'-triphosphate(AMP-PCP) in porcine sarcoplasmic reticulum
[3] = The compound was tested for binding affinity in a buffer containing 500 uM-3 mM beta,gamma-methyleneadenosine 5'-triphosphate(AMP-PCP) in porcine sarcoplasmic reticulum
[4] = Binding affinity against porcine sarcoplasmic reticulum
[5] = The compound was tested for binding affinity against porcine sarcoplasmic reticulum(SR) membrane in the absence or presence of dantrolene from porcine sarcoplasmic reticulum
[6] = The compound was tested for binding affinity against porcine sarcoplasmic reticulum(SR) membrane in the absence or presence of azumolene
[7] = The compound was tested for binding affinity against porcine sarcoplasmic reticulum
[8] = The compound was tested for binding affinity against porcine sarcoplasmic reticulum(SR) membrane in the absence or presence of atropine

- Ki [1]: 1.5 µM
- Kd [2]: 0.275 µM
- Kd [3]: 0.21 µM
Compound: [3H]/C(=N\N1CC(=O)[N-]C1=O)c1ccc(-c2ccc([N+](=O)[O-])cc2)o1.[Na+]

- Kd [4]: 0.3 µM
Compound: O=C1CN(/N=C/c2ccc(-c3ccc([N+](=O)[O-])cc3)o2)C(=O)N1 [DANTROLENE SODIUM]

- Ki [5]: 20 µM
- Ki [6]: 100 µM
- Ki [7]: 0.175 µM
- Ki [8]: 100 µM
Compound: [3H]/C(=N\N1CC(=O)[N-]C1=O)c1ccc(-c2ccc(N=[N+]=[N-])cc2)o1.[Na+] [[3H]-AZIDODANTROLINE]
